Reference: patent publication US20160038526A1, “TREATMENT OF PROSTATE CANCER” (THOMAS JEFFERSON UNIVERSITY, priority 2012, published 2016)
“Also recorded” adds a separate entry of the source.

Legend:
Stat5a/b = experiment: Nuclear Stat5a/b immunostaining in CWR22Rv1 xenograft tumors; assay type: in vivo, nude mice; settings: CWR22Rv1 xenograft tumors of Example 10
Method: (§1) Nuclear active Stat5a/b or nuclear active Stat3 were analyzed by immunostaining with an anti-Stat5a/b or anti-Stat3 antibody, respectively, and biotin-streptavidin amplified peroxidase antiperoxidase immunodetection of paraffin-embedded sections of the prostate xenograft tumors of Example 10. Anti-Stat5a/b (mAb) (55 ng/ml) (Santa Cruz Biotechnology) was used as the primary antibody and antigen-antibody complexes were detected by appropriate biotinylated goat secondary antibodies (Biogenex Laboratories) followed by streptavidin-horseradish-peroxidase complex, and 3,3′-diaminobenzidine as chromogen and Mayer hematoxylin as counterstain. Three microscopic views of each tumor (ten tumors per each treatment group) were photographed at 20× magnification. Nuclear Stat5 and Stat3 indexes were determined by counting epithelial cells with nuclear Stat5a/b immunostaining-positive cells per total number of epithelial cells per view. The counts were averaged within the tumors in a given treatment group.

LNCaP cells = experiment: Cell viability, MTS metabolic activity assay, LNCaP; assay type: cell-based, human; settings: 72 hours
Method: (§2) CWR22Rv1 prostate cancer cells were treated with N6BAP or the control compound C5 (Ctrl) at 25 μM concentration or vehicle for 24 h. Following trypan blue exclusion, the attached viable vs. de-attached dead cells were counted. […] The bars indicate mean±SD of triplicate wells. In another assay, CWR22Rv1, LNCaP and DU145 cells were treated with N6BAP, the control compound C5 (Ctrl) or vehicle at indicated concentrations. The fraction of alive cells was determined by MTS ([…]) metabolic activity assay (CellTiter 96® AQueous Assay kit). The results are shown in FIGS. 9C, 9D and 9E, respectively.

Stat3 [1] = molecular target: Stat3 (Homo sapiens, UniProt P40763); experiment: IL-6-induced Stat3 transcriptional activity, luciferase reporter in LNCaP cells; assay type: cell-based; settings: 6.0 μM for 2 h, 50 ng/ml IL-6 for 16 h
Method: LNCaP prostate cancer cells were transiently co-transfected with pStat3, pIL-6-receptor (pIL-6R), pStat3-Luc and pRL-TK (Renilla luciferase). The cells were serum-starved for 20 h, pre-treated with N6BAP or the control compound C5 (Ctrl) at 6.0 μM for 2 h followed by stimulation with 50 ng/ml of IL-6 for 16 h. The relative luciferase activities were determined. S.E. values are indicated by bars.

[2] = test system: A549 human lung cancer cells; experiment: Cell viability assay, A549; assay type: cell-based
Method: as §2
The procedure of Example 9 was followed, substituting cells of the following solid tumor cell lines for the cells treated in Example 9: A549 human lung cancer cells, CAPAN human pancreatic cancer cells, T47D human breast cancer cells, […], A2058 human melanoma and COS-7 monkey fibroblast cell lines.

Stat3 [3] = experiment: Nuclear Stat3 immunostaining in CWR22Rv1 xenograft tumors; assay type: in vivo, nude mice; settings: CWR22Rv1 xenograft tumors of Example 10
Method: as §1

Stat5b = molecular target: T1, Stat5b (Homo sapiens, UniProt P51692); experiment: Stat5b transcriptional activity, β-casein promoter luciferase reporter gene assay in PC-3 cells; assay type: cell-based; settings: 1 hour pretreatment, 10 nM hPrl for 16 hours
T1 construct: expressed in transfected cells; host or cells: PC-3 (human prostate cancer cell line)
Method: Cells of the human prostate cell line PC-3 were plated into 96-well plate at the density of 2×10^5 per well. After 24 hours of plating, cells were transiently co-transfected using FuGENE6 (Roche) with 0.25 μg of each of pStat5a or pStat5b, pPrlR (prolactin receptor) plasmids, 0.5 μg of pBeta-casein-luc and 0.025 μg of pRL-TK (Renilla luciferase) plasmids as an internal control. After another 24 hours of transfection, the cells were starved in serum-free medium for 8 hours, pretreated with N^6-benzyladenosine-5′-monophosphate (“N6BAP”), or one of five control compounds (designated “C3” through “C7”) of similar molecular weight but unrelated chemical structure to N6BAP), for 1 hour, and then stimulated with 10 nM human prolactin (hPrl) in the serum-free medium for additional 16 hours. The lysates were assayed for firefly and Renilla luciferase activities using the Dual-Luciferase reporter assay system (Promega). Three independent experiments were carried out in triplicate. The firefly luciferase activity was normalized to the Renilla luciferase activity of the same sample, and the mean was calculated from the parallels. From the mean values of each independent run, the overall mean and its standard deviation (S.D.) were calculated.

Jak2 = molecular target: T2, Jak2 (Homo sapiens, UniProt O60674); experiment: Jak2 phosphorylation in CWR22Rv1 cells (immunoprecipitation/Western blot); assay type: cell-based; settings: CWR22Rv1 cells, 25, 50 and 100 μM for 2 h, 10 nM Prl 30 minutes
T2 construct: endogenous in cells; host or cells: CWR22Rv1
Method: CWR22Rv1 cells were starved for 24 h in serum-free medium, treated N6BAP at 25, 50 and 100 μM concentrations for 2 h, followed by stimulation with 10 nM Prl for 30 minutes. Stat5a and Jak2 were immunoprecipitated with anti-Stat5a or anti-Jak2 pAbs. Immunoprecipitates of CWR22Rv1 cells were blotted with anti-PYStat5, anti-Stat5a/b mAb or anti-PY mAb (for Jak2). Whole cell lysates were immunoblotted with anti-actin pAb for loading control. Because SH2-domain of Stat5 mediates the recruitment of Stat5 to the Prl-receptor-Jak2-complex and Stat5 phosphorylation, N6BAP inhibits Prl-induced phosphorylation of Stat5.
The protocol in more detail comprised the following. Cell pellets were solubilized in lysis buffer [10 mM Tris-HCl (pH 7.6), 5 mM EDTA, 50 mM sodium chloride, 30 mM sodium pyrophosphate, 50 mM sodium fluoride, 1 mM sodium orthovanadate, 1% Triton X-100, 1 mM phenylmethylsulfonyl fluoride, 5 μg/mlaprotinin, 1 μg/ml pepstatin A, and 2 μg/ml leupeptin], rotated end-over-end at 4° C. for 60 min, and insoluble material was pelleted at 12,000×g for 30 min at 4° C. The protein concentrations of clarified cell lysates were determined by simplified Bradford method (Bio-Rad Laboratories, Hercules, Calif.). Stat5a, Stat5b and Jak2 were immunoprecipitated from whole cell lysates with anti-Stat5a, anti-Stat5b (4 μl/ml; Millipore, Billerica, Mass.) or anti-Jak2 (Millipore) pAbs. […]

T1 sequence (P51692 whole entry, species assumed): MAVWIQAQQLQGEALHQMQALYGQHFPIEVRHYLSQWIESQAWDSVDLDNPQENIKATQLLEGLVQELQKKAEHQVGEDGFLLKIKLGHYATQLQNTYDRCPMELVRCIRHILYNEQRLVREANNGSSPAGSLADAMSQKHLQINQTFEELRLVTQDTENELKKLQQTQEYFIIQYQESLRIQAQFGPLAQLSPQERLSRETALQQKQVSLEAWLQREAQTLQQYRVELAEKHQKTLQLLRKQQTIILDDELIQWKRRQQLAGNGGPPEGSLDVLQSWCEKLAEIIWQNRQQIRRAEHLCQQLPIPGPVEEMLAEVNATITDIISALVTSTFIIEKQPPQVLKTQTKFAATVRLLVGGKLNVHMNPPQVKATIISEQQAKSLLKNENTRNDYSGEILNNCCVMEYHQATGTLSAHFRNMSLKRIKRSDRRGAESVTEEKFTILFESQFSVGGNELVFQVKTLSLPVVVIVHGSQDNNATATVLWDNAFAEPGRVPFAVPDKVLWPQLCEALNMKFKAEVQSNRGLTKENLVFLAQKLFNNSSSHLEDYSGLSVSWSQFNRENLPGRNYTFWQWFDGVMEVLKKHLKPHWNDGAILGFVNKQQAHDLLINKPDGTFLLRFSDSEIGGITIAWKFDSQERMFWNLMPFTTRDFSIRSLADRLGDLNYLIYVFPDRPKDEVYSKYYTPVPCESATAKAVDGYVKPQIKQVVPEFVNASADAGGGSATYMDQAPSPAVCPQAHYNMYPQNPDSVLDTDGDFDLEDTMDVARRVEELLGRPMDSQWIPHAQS
T2 sequence (O60674 whole entry): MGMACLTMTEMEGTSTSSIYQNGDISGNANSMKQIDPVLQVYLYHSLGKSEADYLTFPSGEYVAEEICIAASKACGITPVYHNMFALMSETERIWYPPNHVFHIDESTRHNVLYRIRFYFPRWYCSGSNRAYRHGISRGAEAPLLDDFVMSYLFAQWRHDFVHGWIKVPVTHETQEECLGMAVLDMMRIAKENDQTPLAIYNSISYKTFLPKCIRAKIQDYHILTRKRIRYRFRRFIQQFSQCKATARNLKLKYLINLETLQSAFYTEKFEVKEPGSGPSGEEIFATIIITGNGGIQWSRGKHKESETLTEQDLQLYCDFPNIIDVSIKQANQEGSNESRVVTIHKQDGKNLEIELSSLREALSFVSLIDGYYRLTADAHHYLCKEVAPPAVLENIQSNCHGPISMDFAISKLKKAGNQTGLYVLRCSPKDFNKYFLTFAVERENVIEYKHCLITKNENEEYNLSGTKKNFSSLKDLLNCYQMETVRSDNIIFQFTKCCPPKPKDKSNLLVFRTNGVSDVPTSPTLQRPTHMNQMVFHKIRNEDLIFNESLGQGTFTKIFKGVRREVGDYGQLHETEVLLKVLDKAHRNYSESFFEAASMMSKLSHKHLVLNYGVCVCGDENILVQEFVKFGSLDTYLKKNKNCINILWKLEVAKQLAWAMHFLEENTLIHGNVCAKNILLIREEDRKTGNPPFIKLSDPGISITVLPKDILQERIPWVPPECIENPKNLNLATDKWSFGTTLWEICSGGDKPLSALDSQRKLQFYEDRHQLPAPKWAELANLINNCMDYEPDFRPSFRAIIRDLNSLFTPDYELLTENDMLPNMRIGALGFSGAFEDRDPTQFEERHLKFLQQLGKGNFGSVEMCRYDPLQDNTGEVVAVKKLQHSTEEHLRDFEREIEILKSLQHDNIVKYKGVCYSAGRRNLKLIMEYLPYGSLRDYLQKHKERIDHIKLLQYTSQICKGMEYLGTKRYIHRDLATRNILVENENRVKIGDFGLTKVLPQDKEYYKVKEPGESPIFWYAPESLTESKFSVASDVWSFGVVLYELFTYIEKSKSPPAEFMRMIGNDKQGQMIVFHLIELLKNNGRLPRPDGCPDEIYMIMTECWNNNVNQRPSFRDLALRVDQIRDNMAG
Chain of Stat3 (Homo sapiens, UniProt P40763) (P40763 whole entry, species assumed): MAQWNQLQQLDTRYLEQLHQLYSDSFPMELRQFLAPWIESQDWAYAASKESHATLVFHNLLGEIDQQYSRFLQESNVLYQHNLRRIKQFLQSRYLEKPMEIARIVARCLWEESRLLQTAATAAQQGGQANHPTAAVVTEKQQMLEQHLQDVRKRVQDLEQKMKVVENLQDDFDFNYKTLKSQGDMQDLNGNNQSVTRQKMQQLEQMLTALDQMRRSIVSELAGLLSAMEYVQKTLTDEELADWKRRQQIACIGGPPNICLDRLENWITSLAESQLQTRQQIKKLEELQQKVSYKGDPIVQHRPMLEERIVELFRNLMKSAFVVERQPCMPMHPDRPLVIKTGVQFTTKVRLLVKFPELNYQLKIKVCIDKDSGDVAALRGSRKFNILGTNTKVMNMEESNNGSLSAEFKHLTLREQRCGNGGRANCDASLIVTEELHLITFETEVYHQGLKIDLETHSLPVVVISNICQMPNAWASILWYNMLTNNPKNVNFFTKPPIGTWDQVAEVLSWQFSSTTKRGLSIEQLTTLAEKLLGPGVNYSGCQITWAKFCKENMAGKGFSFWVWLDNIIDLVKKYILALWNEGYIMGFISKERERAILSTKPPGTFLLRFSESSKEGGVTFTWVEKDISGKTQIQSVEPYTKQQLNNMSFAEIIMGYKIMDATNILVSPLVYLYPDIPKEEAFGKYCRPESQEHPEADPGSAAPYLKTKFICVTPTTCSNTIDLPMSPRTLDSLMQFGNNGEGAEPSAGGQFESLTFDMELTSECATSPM

- phosphorylation of Jak2 (Jak2): does not affect phosphorylation of Jak2
Compound: O=P(O)(O)OC[C@H]1O[C@@H](n2cnc3c(NCc4ccccc4)ncnc32)[C@H](O)[C@@H]1O [N6BAP, N^6-benzyladenosine-5′-monophosphate]
- nuclear Stat5a/b expression in xenograft tumors (Stat5a/b): inhibits nuclear Stat5a/b expression
- number of viable cells (LNCaP cells): decreases the number of viable cells
- transcriptional activity of Stat3 (Stat3 [1]): does not inhibit the transcriptional activity of Stat3
- cell viability [2]: did not affect the viability
- nuclear Stat3 in xenograft tumors (Stat3 [3]): without affecting nuclear Stat3
- transcriptional activity of Stat5b on the β-casein gene promoter (Stat5b): inhibited Stat5a and Stat5b transcriptional activity in a concentration-dependent manner; also recorded: effectively blocks the transcriptional activity
